According to PMC7531601, “Exploiting Lactoferricin (17–30) as a Potential Antimicrobial and Antibiofilm Candidate Against Multi-Drug-Resistant Enteroaggregative Escherichia coli” (Frontiers in Microbiology, 2020):
Read-outs that look alike come from different tables or passages of the source. Ends that are not written are not given here.

Legend:
[1] = tested on: G. mellonella larvae infected with MDR-EAEC (a cocktail of three strains); test: G. mellonella larval survival; type: in vivo, Galleria mellonella; conditions: uninfected larvae, MIC dose, up to 120 h pi
Experimental: The final instar of G. mellonella larvae was utilized for performing the in vivo assays ([Morgan et al., 2014]). The larvae (ca. 200–250 mg) inoculated with aliquots of MDR-EAEC suspensions (10 μl) by injection using Hamilton syringe (26 gauge) via the last right pro-leg were incubated at 37°C and the observations were noted. The larvae kept in a sterile environment were provided with ad lib food during the experiment.
The determined LD50 dose for each MDR-EAEC strain in the larvae was validated and employed further in the in vivo experiments to evaluate the antibacterial efficacy of Lfcin (17–30).
Galleria mellonella larvae were grouped 40 per group for in vivo antimicrobial testing of Lfcin (17–30) as follows: group I (MDR-EAEC infection control), groups II and III (infection + treatment groups), group IV (PBS control), and group V [Lfcin(17–30) control]. Optimized LD50 dose of MDR-EAEC (a cocktail of three strains) was administered to larvae of groups I to III, while MIC dose of Lfcin (17–30) and Meropenem was administered 3 h post-infection (pi) in groups II and III, respectively. Larval group IV was injected with sterile PBS, whereas MIC dose of Lfcin (17–30) was administered in group V. […]

L. rhamnosus MTCC 1408 = conditions: 1X MIC, MRS broth, 37°C, 48 h, absorbance 600 nm and plating
Experimental: (§1) Initially, characterization of Lfcin (17–30) was performed by determining its minimum inhibitory concentration (MIC), minimum bactericidal concentration (MBC), in vitro stability assays (high-end temperatures, the physiological concentration of cationic salts and proteases), and in vitro safety assays (sheep erythrocyte hemolysis and secondary cell line cytotoxicity) (Supplementary Files S1–S3). The membrane permeabilization effect of Lfcin (17–30) was assessed by flow cytometry, whereas outer and inner membrane permeability of MDR-EAEC strains treated with 1 × and 2 × MIC levels of Lfcin (17–30) was carried out based on the nitrocefin activity as well as the release of cytoplasmic β-galactosidase activity, respectively (Supplementary File S4). Further, Lfcin (17–30) was evaluated for its antibacterial activity against beneficial lactobacilli (L. acidophilus MTCC 10307 and L. rhamnosus MTCC 1408) (Supplementary File S5).
(§2) Besides, the safety aspect of Lfcin (17-30) against beneficial gut lactobacilli was also investigated. […] After incubation at 37 °C for 48 h, the antibacterial effect of AMP on commensal lactobacilli was measured by observing the absorbance at 600 nm (Thermo Scientific Multiskan GO) as well as drawing two 10 µl samples from each well and plating them onto MRS agar plates. […]

[2] = tested on: L. acidophilus MTCC 10307; conditions: 1X MIC, MRS broth, 37°C, 48 h, absorbance 600 nm and plating
Experimental: as §1, §2

sheep erythrocytes = sheep erythrocytes (10%)
Experimental: as §1
(§3) To determine the safety of Lfcin (17-30) on host cells, a haemolytic assay using sheep erythrocytes as well as cytotoxicity assay using secondary cell lines were performed with 1X, 2X and 4X MICs of Lfcin (17-30), respectively. In brief, haemolytic assay was performed, wherein the haemolytic activity of Lfcin (17-30) was tested by determining the extent of haemoglobin release from sheep erythrocytes (10%). Further, the safety aspect of Lfcin (17-30) was evaluated on secondary cell line viz., human epithelioma cell line (HEp-2), and murine macrophage cell line (RAW 264.7) by performing MTT [3-(4,5-dimethylthiazole-2-yl)-2,5-diphenyl tetrazolium bromide] assay.

HEp-2 cells = conditions: MTT
Experimental: as §1, §3

RAW 264.7 cells = conditions: MTT
Experimental: as §1, §3

MDR-EAEC strains = MDR-EAEC strains (n = 3)
Experimental: as §1

G. mellonella larvae = test: LDH cytotoxicity assay of larval haemolymph; type: in vivo, Galleria mellonella
Experimental: Galleria mellonella larvae were grouped 40 per group for in vivo antimicrobial testing of Lfcin (17–30) as follows: group I (MDR-EAEC infection control), groups II and III (infection + treatment groups), group IV (PBS control), and group V [Lfcin(17–30) control]. Optimized LD50 dose of MDR-EAEC (a cocktail of three strains) was administered to larvae of groups I to III, while MIC dose of Lfcin (17–30) and Meropenem was administered 3 h post-infection (pi) in groups II and III, respectively. Larval group IV was injected with sterile PBS, whereas MIC dose of Lfcin (17–30) was administered in group V.
The larvae were then observed for their survival rate, melanization (Supplementary Information S7), MDR-EAEC counts (Supplementary Information S8), hemocyte density (Supplementary Information S9) ([Wand et al., 2013]), lactate dehydrogenase (LDH) cytotoxicity assay (Supplementary Information S10) ([Gibreel and Upton, 2013]), and histopathology (Supplementary Information S11) ([Perdoni et al., 2014]), at an interval of 6 h till 24 h, followed by 24-h interval up to 120 h pi.
G. mellonella (n=3 larvae per group) were analysed for the production of LDH, as a marker of cell damage, at an interval of 6 h pi for 24 h, followed by 24 h interval till 96 h pi using QuantiChrom LDH cytotoxicity assay kit, according to the manufacturer’s instructions. The positive and negative controls used in this study were […]. The absorbance was read using ELISA plate reader at 500 nm; the haemolymph from untreated larvae served as background control and the cytotoxicity was calculated as, Cytotoxicity (%) = (ODSample - ODControl)/ (ODTotal Lysis - ODControl) x 100, wherein, sample is the control absorbance of treated cell; control is the experimental absorbance of the untreated cell control and total lysis is the absorbance of Triton X-100 treated cells.

For FKCRRWQWRMKKLG [Lfcin (17–30)], the survival rate [1] was 100%, the “antimicrobial effect on beneficial lactobacilli” value (L. rhamnosus MTCC 1408) was “non-significant” and the “antimicrobial effect on beneficial lactobacilli” value [2] was “non-significant”. For the same sequence, the “Haemolysis (%)” value (sheep erythrocytes; MIC (1X)) was “non-hemolytic”, the “Haemolysis (%)” value (sheep erythrocytes; MIC (2X)) was “non-hemolytic” and the “cytotoxicity / morphological changes” value (HEp-2 cells; HEp-2, 1× and 2× MIC) was “remarkable morphological changes were not evident”. For the same sequence, the cytotoxicity (HEp-2 cells; HEp-2, 4× MIC) was “moderate to higher cytotoxicity”, the “cytotoxicity / morphological changes” value (RAW 264.7 cells; RAW 264.7, 1× and 2× MIC) was “remarkable morphological changes were not evident” and the cytotoxicity (RAW 264.7 cells; RAW 264.7, 4× MIC) was “moderate to higher cytotoxicity”. For the same sequence, the MBC (MDR-EAEC strains; at least 99.9% killing after 24 h) was 32 µM, the MIC (MDR-EAEC strains; micro-broth dilution) was 32 µM and the LDH cytotoxicity (G. mellonella larvae; infected larvae treated 3 h pi) was “cytotoxicity remained increased up to 48 h pi”. The LDH cytotoxicity (G. mellonella larvae; uninoculated larvae treated with MIC dose) was “significantly increased cytotoxicity was observed at 6 to 18 h pi”.
